# Data taken from paper PMC9838390, “Discovery and biosynthesis of karnamicins as angiotensin converting enzyme inhibitors” (Nature Communications, 2023).
# “And” between values parts separate entries of the source, which are not always exact repeats. Equal entries are not always repeated.
# Key:
# Type in all cases: biochemical, L. rhizosphaerae NEAU-A2
# [1] = tested on: KnmB2; experiment: Hydrogen peroxide formation assay of KnmB2 and variants
# Protocol: (§1) Hydrogen peroxide formation assay and NADPH oxidation
# (§2) The hydrogen peroxide formed from KnmB1, KnmB2 and their variants were measured using the Hydrogen Peroxide Assay Kit (Beyotime Industrial Co. Ltd, Shanghai, China)4-5. 5–100 µL of enzyme reaction mixture was added to 100 µL of working reagent (S0038-1). The mixture was incubated for 30 min at 25 °C, at which time the absorbance at 560 nm was measured by NanoDrop 2000c (Fisher Scientific). […]
# (§3) Spectral data for new compounds […]
# (§4) Supplementary Figure 131. H2O2 generation and NADPH oxidation for KnmB2, KnmB1 and their variants. (a) Hydrogen peroxide formation of KnmB2 and variants. […]
# (§5) (1 picture or pasted object on this page, not shown here) […]
# H2O2 generation for KnmB2 and variants in the presence 24 or 32. Reaction conditions (h-j) for KnmB2 and their variants: 50 mM Tris-HCl buffer (pH 7.5), 0.15 mM NADPH, 2 μM KnmB2 or variants, or 0.1 mM substrate 24/32. Values are the means ± SD of n = 3 independent experiments, except for KnmB2+24 (T = 40 min), KnmB2-N219D+24 (T = 4 min), KnmB2-Y215F+24 (T= 1 min and 3 min) in i and j, and KnmB2+32 (T= 8 min) in j (n = 2). Source data are provided as a Source Data file. […]
# [2] = tested on: KnmB1; experiment: Hydrogen peroxide formation assay of KnmB1 and variants; conditions: 30 °C, average of 3
# Protocol: as §1, §2, §3, §4
# (b) Hydrogen peroxide formation of KnmB1 and variants. Reaction conditions: 100 µL system containing 50 mM Tris-HCl buffer (pH 7.5), 1 mM NADPH, 16 μM KnmB2, 17 μM KnmB1 or variants, 0.1 mM compound 24,1 mM SAM, and 2 […]
# as §5
# μM KnmF at 30 °C for 3h. (c) Hydrogen peroxide formation of KnmB1 and variants.
# Reaction conditions: 100µL system containing 50 mM Tris-HCl buffer (pH 7.5), 0.3 mM NADPH, and 6 μM KnmB1 or variants, or 0.1 mM 24 at 30 °C for 30 min. […]
# (§6) 2 μM KnmB2 or variants, or 0.1 mM substrate 24/32. […]
# (§7) Source data are provided as a Source Data file. […]
# [3] = tested on: KnmB1; experiment: NADPH oxidation of KnmB1 and variants (340 nm)
# Protocol: Hydrogen peroxide formation assay and NADPH oxidation […]
# NADPH detection was carried out in the cuvette by NanoDrop 2000c (Fisher Scientific). NADPH signal at 340 nm was monitored in time using 6220 M–1 cm–1 as […]
# as §3
# Reaction conditions: 50 mM Tris-HCl buffer (pH 7.5), 0.15 mM NADPH, and 2 μM KnmB1 or KnmB2. (e) NADPH oxidation of KnmB1 and variants. (f) NADPH oxidation of KnmB1 in the presence 24/32/36. (g) NADPH oxidation of KnmB1 and variants in the presence 24. Reaction conditions (e-g) for KnmB1 and their variants: 50 mM Tris-HCl buffer (pH 7.5), 0.15 mM NADPH, and 6 μM KnmB1 or variants, or 0.1 mM substrate 24/32/36. […]
# as §6, §7
structure (smiles),measurement,setting,value
CC(C)CCCCc1nc(-c2cc(O)cc(C(N)=O)n2)cs1 [Compound 24],"hydrogen peroxide formation of KnmB2 (absorbance UV λ=560 nm), average value","[1]; Fig. S131a, 1 mM NADPH, 16 μM KnmB2, 0.1 mM compound, 30 °C, 3 h, average of 3",0.5988
same,"H2O2 generation, average value","[1]; KnmB2+24, Time 0",0.0000 µM
same,"H2O2 generation, average value","[1]; KnmB2+24, Time 1",7.6218 µM
same,"H2O2 generation, average value","[1]; KnmB2+24, Time 2",12.4635 µM
same,"H2O2 generation, average value","[1]; KnmB2+24, Time 3",16.9204 µM
same,"H2O2 generation, average value","[1]; KnmB2+24, Time 4",22.1791 µM
same,"H2O2 generation, average value","[1]; KnmB2+24, Time 5",26.8239 µM
same,"H2O2 generation, average value","[1]; KnmB2+24, Time 8",38.8438 µM
same,"H2O2 generation, average value","[1]; KnmB2+24, Time 10",44.6588 µM
same,"H2O2 generation, average value","[1]; KnmB2+24, Time 15",53.6376 µM
same,"H2O2 generation, average value","[1]; KnmB2+24, Time 20",56.0339 µM
same,"H2O2 generation, average value","[1]; KnmB2+24, Time 30",65.5374 µM
same,"H2O2 generation, average value","[1]; KnmB2+24, Time 40",57.4770 µM
same,"H2O2 generation, average value","[1]; KnmB2+24, Time 60",60.9452 µM
same,"H2O2 generation, average value","[1]; KnmB2-N219D+24, Time 0",0.0000 µM
same,"H2O2 generation, average value","[1]; KnmB2-N219D+24, Time 2",1.0964 µM
same,"H2O2 generation, average value","[1]; KnmB2-N219D+24, Time 4",1.8460 µM
same,"H2O2 generation, average value","[1]; KnmB2-N219D+24, Time 5",1.9569 µM
same,"H2O2 generation, average value","[1]; KnmB2-N219D+24, Time 8",2.8926 µM
same,"H2O2 generation, average value","[1]; KnmB2-N219D+24, Time 10",3.8614 µM
same,"H2O2 generation, average value","[1]; KnmB2-N219D+24, Time 15",5.8462 µM
same,"H2O2 generation, average value","[1]; KnmB2-N219D+24, Time 20",7.3014 µM
same,"H2O2 generation, average value","[1]; KnmB2-N219D+24, Time 30",11.0201 µM
same,"H2O2 generation, average value","[1]; KnmB2-N219D+24, Time 40",14.2037 µM
same,"H2O2 generation, average value","[1]; KnmB2-N219D+24, Time 60",17.9462 µM
same,"H2O2 generation, average value","[1]; KnmB2-Y215F+24, Time 0",0.0000 µM
same,"H2O2 generation, average value","[1]; KnmB2-Y215F+24, Time 1",2.6203 µM
same,"H2O2 generation, average value","[1]; KnmB2-Y215F+24, Time 2",4.3765 µM
same,"H2O2 generation, average value","[1]; KnmB2-Y215F+24, Time 3",4.8322 µM
same,"H2O2 generation, average value","[1]; KnmB2-Y215F+24, Time 4",7.3420 µM
same,"H2O2 generation, average value","[1]; KnmB2-Y215F+24, Time 5",8.5825 µM
same,"H2O2 generation, average value","[1]; KnmB2-Y215F+24, Time 8",12.4110 µM
same,"H2O2 generation, average value","[1]; KnmB2-Y215F+24, Time 10",14.9169 µM
same,"H2O2 generation, average value","[1]; KnmB2-Y215F+24, Time 15",20.6983 µM
same,"H2O2 generation, average value","[1]; KnmB2-Y215F+24, Time 20",27.2428 µM
same,"H2O2 generation, average value","[1]; KnmB2-Y215F+24, Time 30",36.5225 µM
same,"H2O2 generation, average value","[1]; KnmB2-Y215F+24, Time 40",40.7285 µM
same,"H2O2 generation, average value","[1]; KnmB2-Y215F+24, Time 60",52.7400 µM
same,"hydrogen peroxide formation of KnmB1 (absorbance UV λ=560 nm), average value","[2]; Fig. S131b, 1 mM NADPH, 17 μM KnmB1, 0.1 mM compound, 3 h",0.5214
same,"hydrogen peroxide formation of KnmB1 (absorbance UV λ=560 nm), average value","[2]; Fig. S131c, 0.3 mM NADPH, 6 μM KnmB1, 0.1 mM compound, 30 min",1.0442
same,effector action on reduction of flavin in KnmB1 by NADPH,"[3]; 0.15 mM NADPH, 6 μM KnmB1, 0.1 mM compound (Fig. S131f)",could act as a non-substrate effector
same,"NADPH oxidation of KnmB1 in the presence of compound (replicates 1, 2, 3)",[3]; Time 0,0.0000 µM
same,"NADPH oxidation of KnmB1 in the presence of compound, average value",[3]; Time 0,0.0000 µM
same,"NADPH oxidation of KnmB1 in the presence of compound (replicates 1, 2, 3)",[3]; Time 1,2.9582 µM and 2.2830 µM and 2.5080 µM
same,"NADPH oxidation of KnmB1 in the presence of compound, average value",[3]; Time 1,2.5831 µM
same,"NADPH oxidation of KnmB1 in the presence of compound (replicates 1, 2, 3)",[3]; Time 2,6.8489 µM and 4.6945 µM and 5.9164 µM
same,"NADPH oxidation of KnmB1 in the presence of compound, average value",[3]; Time 2,5.8199 µM
same,"NADPH oxidation of KnmB1 in the presence of compound (replicates 1, 2, 3)",[3]; Time 3,8.2797 µM and 6.4309 µM and 6.4630 µM
same,"NADPH oxidation of KnmB1 in the presence of compound, average value",[3]; Time 3,7.0579 µM
same,"NADPH oxidation of KnmB1 in the presence of compound (replicates 1, 2, 3)",[3]; Time 4,9.7106 µM and 8.7942 µM and 8.6174 µM
same,"NADPH oxidation of KnmB1 in the presence of compound, average value",[3]; Time 4,9.0407 µM
same,"NADPH oxidation of KnmB1 in the presence of compound (replicates 1, 2, 3)",[3]; Time 5,11.9293 µM and 10.4662 µM and 10.1447 µM
same,"NADPH oxidation of KnmB1 in the presence of compound, average value",[3]; Time 5,10.8467 µM
same,"NADPH oxidation of KnmB1 in the presence of compound (replicates 1, 2, 3)",[3]; Time 8,16.3826 µM and 16.8650 µM and 14.9839 µM
same,"NADPH oxidation of KnmB1 in the presence of compound, average value",[3]; Time 8,16.0772 µM
same,"NADPH oxidation of KnmB1 in the presence of compound (replicates 1, 2, 3)",[3]; Time 10,19.9679 µM and 20.5788 µM and 17.6688 µM
same,"NADPH oxidation of KnmB1 in the presence of compound, average value",[3]; Time 10,19.4051 µM
same,"NADPH oxidation of KnmB1 in the presence of compound (replicates 1, 2, 3)",[3]; Time 15,26.9614 µM and 30.3537 µM and 23.0064 µM
same,"NADPH oxidation of KnmB1 in the presence of compound, average value",[3]; Time 15,26.7739 µM
same,"NADPH oxidation of KnmB1 in the presence of compound (replicates 1, 2, 3)",[3]; Time 20,35.3859 µM and 38.9550 µM and 30.1286 µM
same,"NADPH oxidation of KnmB1 in the presence of compound, average value",[3]; Time 20,34.8232 µM
same,"NADPH oxidation of KnmB1 in the presence of compound (replicates 1, 2, 3)",[3]; Time 30,48.2476 µM and 54.0515 µM and 41.3344 µM
same,"NADPH oxidation of KnmB1 in the presence of compound, average value",[3]; Time 30,47.8778 µM
same,"NADPH oxidation of KnmB1 in the presence of compound (replicates 1, 2, 3)",[3]; Time 40,59.6785 µM and 66.9936 µM and 50.7878 µM
same,"NADPH oxidation of KnmB1 in the presence of compound, average value",[3]; Time 40,59.1533 µM
same,"NADPH oxidation of KnmB1 in the presence of compound (replicates 1, 2, 3)",[3]; Time 60,78.3119 µM and 86.3505 µM and 66.4309 µM
same,"NADPH oxidation of KnmB1 in the presence of compound, average value",[3]; Time 60,77.0311 µM
